Patent US20260272878A1, “ADAR1 INHIBITORS AND USES THEREOF” (THE WISTAR INSTITUTE OF ANATOMY AND BIOLOGY, priority 2023, published 2026)
“Also recorded” adds a separate entry of the source.

Experiments:
ADAR1p110 = target: T1, ADAR1p110 (Homo sapiens, UniProt P55265); assay: In vitro editing assay with recombinant ADAR1p110 and synthetic dsRNA; type: biochemical; conditions: for IC50: ADAR1p110, dose-dependent in vitro editing assay; for Inhibition of ADAR1p110 editing: in vitro editing assay, result in words
T1 construct: HAT (N); made in house; host or cells: Sf9 cells (baculovirus)
T1 sequence (P55265 1-931 isoform P55265-5): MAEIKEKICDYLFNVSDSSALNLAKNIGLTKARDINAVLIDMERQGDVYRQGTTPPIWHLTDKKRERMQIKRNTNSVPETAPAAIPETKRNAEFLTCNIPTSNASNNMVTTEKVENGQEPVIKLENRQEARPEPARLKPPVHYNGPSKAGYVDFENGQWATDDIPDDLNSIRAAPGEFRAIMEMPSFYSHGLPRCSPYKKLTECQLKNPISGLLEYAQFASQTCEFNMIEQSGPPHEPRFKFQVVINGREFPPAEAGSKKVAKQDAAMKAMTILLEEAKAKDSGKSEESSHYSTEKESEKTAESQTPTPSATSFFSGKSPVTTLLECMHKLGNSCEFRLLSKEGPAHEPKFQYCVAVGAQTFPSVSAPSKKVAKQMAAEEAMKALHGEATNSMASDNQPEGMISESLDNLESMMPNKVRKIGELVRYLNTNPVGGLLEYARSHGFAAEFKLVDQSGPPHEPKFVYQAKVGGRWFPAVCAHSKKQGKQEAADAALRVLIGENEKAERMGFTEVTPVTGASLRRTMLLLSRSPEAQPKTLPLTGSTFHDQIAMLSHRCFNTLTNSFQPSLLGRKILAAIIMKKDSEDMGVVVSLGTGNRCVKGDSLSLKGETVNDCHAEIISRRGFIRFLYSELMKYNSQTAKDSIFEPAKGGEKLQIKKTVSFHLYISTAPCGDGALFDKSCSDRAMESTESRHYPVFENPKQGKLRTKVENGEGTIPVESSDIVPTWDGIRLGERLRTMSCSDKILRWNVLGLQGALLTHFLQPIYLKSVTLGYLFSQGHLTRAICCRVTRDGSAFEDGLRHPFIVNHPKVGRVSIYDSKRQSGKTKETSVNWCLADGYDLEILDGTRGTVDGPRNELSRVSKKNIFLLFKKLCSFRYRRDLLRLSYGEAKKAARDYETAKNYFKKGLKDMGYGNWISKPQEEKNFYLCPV
Procedure: In vitro editing assay using purified HAT-ADAR1p110 and a synthetic dsRNA was conducted at varying concentrations of ADAR1i-124. The editing efficiency was determined by the guanosine peak replacing the adenosine peak of cDNA sequencing chromatograms.
The in vitro editing reaction mixture, containing 5 nM of telomere RNA:RNA duplex substrates and 75 nM of HAT-ADAR1p110-WT, FLAG-ADAR1p110-WT, or HA-ADAR1p110-EAA protein, was incubated at 37° C. for 2 h in in vitro editing buffer I (20 mM HEPES-KOH PH 7.5, 100 mM NaCl, 0.01% NP-40, 5% glycerol, 1 mM DTT). For editing of RNA:DNA hybrid substrates, in vitro editing buffer II (20 mM HEPES-KOH PH 7.5, 20 mM NaCl, 0.01% NP-40, 5% glycerol, 1 mM DTT) was used. Edited RNA or DNA strands were purified using Dynabeads MyOne Streptavidin C1 (Thermo Fisher Scientific). To remove opposite RNA or DNA strands, rNase H (NEB) or TURBO dNase (Thermo Fisher Scientific) was used, respectively. For sequencing of edited substrates, reverse transcription-PCR was carried out for RNA strands, while PCR was carried out for DNA strands. RT reactions were carried out using SuperScript III Reverse Transcriptase (Thermo Fisher Scientific), and PCR reactions were performed using Platinum Taq DNA polymerase (Thermo Fisher Scientific). PCR products were sequenced using a specific sequencing primer, and the ratio of A and G peaks in the chromatograms were analyzed by CodonCode Aligner (CodonCode Corporation).
In a previous study, the 54 compounds identified in the high-throughput screen were further tested in the in vitro editing assay described in Examples 2 and 3. The in vitro editing reaction mixture, containing 5 nM of telomere RNA:RNA duplex substrates and 75 nM of HAT-ADAR1p110-WT, FLAG-ADAR1p110-WT, or HA-ADAR1p110-EAA protein, was incubated at 37° C. for 2 h in in vitro editing buffer I (20 mM HEPES-KOH PH 7.5, 100 mM NaCl, 0.01% NP-40, 5% glycerol, 1 mM DTT) with 10 microM test compound. For editing of RNA:DNA hybrid substrates, in vitro editing buffer II (20 mM HEPES-KOH PH 7.5, 20 mM NaCl, 0.01% NP-40, 5% glycerol, 1 mM DTT) was used. Edited RNA or DNA strands were purified using Dynabeads MyOne Streptavidin C1 (Thermo Fisher Scientific). To remove opposite RNA or DNA strands, Rnase H (NEB) or TuRBO Dnase (Thermo Fisher Scientific) was used, respectively. For sequencing of edited substrates, reverse transcription-PCR was carried out for RNA strands, while PCR was carried out for DNA strands. RT reactions were carried out using SuperScript III
Reverse Transcriptase (Thermo Fisher Scientific), and PCR reactions were performed using Platinum Taq DNA polymerase (Thermo Fisher Scientific). PCR products were sequenced using a specific sequencing primer, and the ratio of A and G peaks in the chromatograms were analyzed by CodonCode Aligner (CodonCode Corporation).

YUMM1.7 cells = assay: Immunostaining (MAb J2) of unedited dsRNA fibers; type: cell-based, mouse; conditions: for Unedited dsRNA fiber structures in cells: immunostaining with MAb J2, YUMM1.7 cells
From the text: FIGS. 7A-7C show analysis of ADAR1i-13 and analogs. […] IC50 values determined by dose-dependent in vitro editing assay are shown for ADAR1 inhibition positive compounds. […] Dumbbell-shaped dsRNA has been reported to form Z-RNA conformation and act as a strong IFN signaling activation triggers. ADAR1p150 mediated A-to-I editing suppresses Z-RNA structure transition and activation of IFN signaling.
It has been reported that the suppression ADAR1 editing activity results in binding of MDA5 to unedited dsRNAs, oligomerization of MDA5-dsRNA complexes, and formation of fiber-like structures (21, 44). These dsRNA fiber structures were detected in cells treated with ADAR1 inhibition active compounds, ADAR1i-13, ADAR1i-120, and ADAR1i-124, but not detected in cells treated with ADAR1 inhibition negative compounds (FIG. 7A).

HeLa cells = assay: Western blotting of treated HeLa cells (DNA damage, M phase arrest, apoptosis); type: cell-based, human; conditions: 10 μM for ADAR1i-124
Procedure: FIGS. 8A-8C show analysis of ADAR1i-124 effects in cancer cells. […] Viability was examined using the Apo Tox-Glo assay system. Control, 0.3% DMSO. Data: mean±SD (n=3). Significant differences identified by two-tailed Student's t-tests: *P<0.05, n.s., not significant. (FIG. 8B) Western blotting analysis of HeLa cells treated with ADAR1i-124 (10 μM).
Dose-dependent selective killing of telomerase reactivated cancer cells was determined (FIG. 9A).

| SMILES | IC50 (ADAR1p110) [µM] | Inhibition of ADAR1p110 editing (ADAR1p110) | Substrate preference of editing inhibition (matched vs A-C mismatched dsRNA) (ADAR1p110; recombinant ADAR1p110, matched and mismatched dsRNA substrates, 10 microM test compound) | Unedited dsRNA fiber structures in cells (YUMM1.7 cells) | DNA damage, M phase arrest and apoptosis markers (HeLa cells) | RNase III sensitivity of induced dsRNA fibers (YUMM1.7 cells; RNase III treatment) |
| --- | --- | --- | --- | --- | --- | --- |
| N#Cc1ccc(NC(=O)c2sc3ccccc3c2Cl)cc1 [ADAR1i-13, 3-chloro-N-(4-cyanophenyl)-1-benzothiophene-2-carboxamide] | 10 to 20 | inhibited ADAR1p110 editing of all three substrates tested, including the DNA:RNA hybrid substrate | preferentially inhibited matched adenosines | detected; also recorded: unedited dsRNA fibers induced | induced DNA damage, M phase arrest, and apoptosis | – |
| N#Cc1ccccc1NC(=O)c1sc2ccccc2c1Cl [ADAR1i-120] | 10 to 20 | ADAR1 inhibitory activities | – | detected; also recorded: unedited dsRNA fibers induced | induced DNA damage, M phase arrest, and apoptosis | – |
| N#Cc1ccc(NC(=O)c2c(Cl)c3ccccc3n2CO)cc1 [ADAR1i-124] | 10 to 20 | ADAR1 inhibitory activities; also recorded: inhibited both ADAR1p150 and ADAR1p-110 | – | detected; also recorded: unedited dsRNA fibers induced | induced DNA damage, M phase arrest, and apoptosis; also recorded: upregulated g-H2AX, Histone 3 phosphorylated at Serine 10, and cleaved PARP bands | abolished by RNase III treatment; also recorded: sensitive to RNase III treatment |
